Experimental data as given in patent US20240417687A1, “THYMIC CELLS AND METHODS OF MAKING” (Thymmune Therapeutics, Inc., priority 2021, published 2024).

Tested on: iPSCs
Assay: Optimizing 3D differentiation of iPSCs to definitive endoderm (Experiments 21, 22, 23)
Format: cell-based, human
Method: In this experiment, the effect of adding PI-103 to Experiment 21/22 Medium B was tested. The effect of transitioning to 2D culture at the AFE stage was also tested. Differentiation of iPSCs into DE requires proper timing for introducing small molecules and growth factors. On Day 1-2, Experiment 21/22 Media A comprising DMEM-F12 and factors/small molecules namely Activin A (100 ng/mL), CHIR99021 2 μM, ITS (1:1000), KSR (0.05%), Pen strep (100×), PI-103 (25 nM) and NEAA (100×) was added. On day 3-5, Experiment 21/22 Media B comprising DMEM-F12 and factors/small molecules namely Activin A (100 ng/mL), LDN193189 (200 nM), PI-103 (25 nM), Insulin-Transferrin-Selenium (ITS-G) (1:1000), KSR (0.05%), Pen strep (100×) and NEAA (100×) was added. In Experiment 22, PI-103 (25 nM) was excluded. The effect of transitioning from 3D to 2D culture at VPE stage was tested. The impact of CHIR99021 addition to Experiment 23 Medium B was tested. Differentiation of iPSCs into DE requires proper timing for introducing small molecules and growth factors. On day 1-2, cells were cultured in Experiment 23 Media A comprising DMEM-F12 and small molecules/factors namely Activin A (100 ng/mL), CHIR99021 2 μM, ITS (1:1000), KSR (0.05%), Pen strep (100×), PI-103 (25 nM), and NEAA (100×). On day 3-4, Experiment 23 Media B containing DMEM-F12 and small molecules/factors namely Activin A (100 ng/mL), CHIRR9901 (2 μM), LDN193189 (200 nM), PI-103 (25 nM), Insulin-Transferrin-Selenium (ITS-G) (1:1000), KSR (0.05%), Pen strep (100×), and NEAA (100×). On day 5, Experiment 23 Media B containing DMEM-F12 and small molecules/factors namely Activin A (100 ng/mL), LDN193189 (200 nM), PI-103 (25 nM), Insulin-Transferrin-Selenium (ITS-G) (1:1000), KSR (0.05%), Pen strep (100×), NEAA (100×) was added. Experiment 21 and Experiment 23 described in Example 11 were designed to identify optimal conditions for 3D differentiation to DE. […] Sox17/FoxA2 double positive were higher in Experiment 23, whereas there were more Sox17/FoxA2 negative cells in Experiment 21 and Experiment 22.

Q: `Oc1cccc(-c2nc(N3CCOCC3)c3oc4ncccc4c3n2)c1` [PI-103] was tested. Which DE differentiation (PI-103 (25 nM) added to Experiment 21/22 Medium B, day 3-5, excluded in Experiment 22) did it give?
A: The DE differentiation was “enhanced DE differentiation”.

Q: `Cc1c[nH]c(-c2cnc(NCCNc3ccc(C#N)cn3)nc2-c2ccc(Cl)cc2Cl)n1` [CHIRR99, CHIR99021] was tested. Which differentiation (2 μM added to Experiment 23 Medium B, day 3-4) did it give?
A: Its differentiation is “enhance differentiation”.

Q: And the “differentiation efficiency to DE” value (Experiment 23 with Wnt activator versus Experiment 21 and 22 without)?
A: Its value is “increased differentiation efficiency to DE”.
